According to US4593093A, “Acyl derivatives” (priority 1980, dated 1986):
Where a name gives a salt, the structure may show the parent alone. Read-outs that look alike come from different tables or passages of the source.

Assays:
Proteus morganii = assay: Activity in vitro: minimum inhibitory concentration; type: cell-based; details: Morganella morganii
Serratia marcescens [1] = assay: as above; type: cell-based
Toxicity, LD50 = details: in vivo
Pseudomonas aeruginosa [2] = assay: Activity in vivo: survival of intraperitoneally infected mice; details: sc, 96 h; mice infected i.p. with Pseudomonas aeruginosa; s.c. three times, 1 h, 3 h and 5 h after infection; survival on 4th day; read-out: CD50 (dosage at which 50% of the animals survive)
Method: (§1) Groups of 5 mice are infected intraperitoneally with an aqueous suspension of various pathogens. The test substance in physiological sodium chloride solution is administered subcutaneously twice, i.e. 1 hour and 3 hours after the infection. The number of surviving animals is determined on the 4th day. Various dosages are administered and that dosage at which 50% of the experimental animals survive (CD50, mg/kg) is determined by interpolation.
*Administered subcutaneously three times: 1 hour, 3 hours and 5 hours

Proteus mirabilis = assay: Activity in vitro: minimum inhibitory concentration; type: cell-based
Staphylococcus aureus = assay: as above; type: cell-based
Serratia marcescens [3] = assay: Activity in vivo: survival of intraperitoneally infected mice; details: sc, 96 h, mice infected i.p. with Serratia marcescens strain 1, s.c. twice, 1 h and 3 h after infection, survival on 4th day, read-out: CD50 (dosage at which 50% of the animals survive)
Method: as §1

Streptococcus pyogenes [4] = assay: as above; details: sc, 96 h; mice infected i.p. with Streptococcus pyogenes; s.c. twice, 1 h and 3 h after infection; survival on 4th day; read-out: CD50 (dosage at which 50% of the animals survive)
Method: as §1

Escherichia coli [5] = assay: as above; details: sc, 96 h; mice infected i.p. with Escherichia coli; s.c. twice, 1 h and 3 h after infection; survival on 4th day; read-out: CD50 (dosage at which 50% of the animals survive)
Method: as §1

Pseudomonas aeruginosa [6] = assay: Activity in vitro: minimum inhibitory concentration; type: cell-based
Enterobacter cloacae [7] = assay: as above; type: cell-based
Escherichia coli [8] = assay: as above; type: cell-based
Proteus vulgaris = assay: as above; type: cell-based
Streptococcus pyogenes [9] = assay: as above; type: cell-based
Klebsiella pseumoniae = assay: as above; type: cell-based
Citrobacter freundii = assay: as above; type: cell-based
Proteus rettgeri = assay: as above; type: cell-based; details: Providencia rettgeri
Neisseria moningitidis = assay: Activity in vivo: survival of intraperitoneally infected mice; details: sc, 96 h; mice infected i.p. with Neisseria moningitidis; s.c. twice, 1 h and 4 h after infection; survival on 4th day; read-out: CD50 (dosage at which 50% of the animals survive)
Method: as §1
**Administered subcutaneously twice: 1 hour and 4 hours after the […]

Haemophilus influenzae = assay: as above; details: sc, 96 h; mice infected i.p. with Haemophilus influenzae; s.c. twice, 1 h and 3 h after infection; survival on 4th day; read-out: CD50 (dosage at which 50% of the animals survive)
Method: as §1

Enterobacter cloacae [10] = assay: as above; details: sc, 96 h; mice infected i.p. with Enterobacter cloacae; s.c. twice, 1 h and 3 h after infection; survival on 4th day; read-out: CD50 (dosage at which 50% of the animals survive)
Method: as §1

Staphylococcus epidermis = assay: Activity in vitro: minimum inhibitory concentration; type: cell-based
Streptococcus viridans = assay: as above; type: cell-based
Streptococcus faecalis = assay: as above; type: cell-based; details: Enterococcus faecalis
Streptococcus pneumoniae = assay: as above; type: cell-based
Enterobacter aerogenes = assay: as above; type: cell-based; details: Klebsiella aerogenes
Proteus inconstans = assay: as above; type: cell-based; details: Providencia alcalifaciens
[11] = Pseudomonas aeruginosa strain 1
[12] = Pseudomonas aeruginosa strain 2
[13] = Pseudomonas aeruginosa strain 3
[14] = Streptococcus pyogenes strain 1, read-out: Minimum inhibitory concentration

CO/N=C(\C(=O)N[C@@H]1C(=O)N2C(C(=O)O)=C(COC(C)=O)CS[C@H]12)c1c[se]c(N)n1 [Product D, (6R, 7R)-3-(acetoxymethyl)-7-[2-(2-amino-4-selenazolyl)-2-[(Z)-methoxyimino]-acetamido]-8-oxo-5-thia-1-azabicyclo[4.2.0]oct-2-ene-2-carboxylic acid disodium salt]
MIC (Proteus morganii): 0.39 µg/mL | MIC (Serratia marcescens [1]; Serratia marcescens strain 1): 0.8 µg/mL | MIC (Serratia marcescens [1]; Serratia marcescens strain 2): 0.8 µg/mL | LD50 (Toxicity, LD50; po): > 5000 mg/kg | LD50 (Toxicity, LD50; sc): > 4000 mg/kg | ED50 (Pseudomonas aeruginosa [2]): 35 mg/kg | MIC (Proteus mirabilis; Proteus mirabilis strain 1): 0.025 µg/mL | MIC (Proteus mirabilis; Proteus mirabilis strain 2): 0.05 µg/mL | MIC (Staphylococcus aureus; Staphylococcus aureus strain 1): 0.8 µg/mL | MIC (Staphylococcus aureus; Staphylococcus aureus strain 2): 3.1 µg/mL | ED50 (Serratia marcescens [3]): 0.14 mg/kg | ED50 (Streptococcus pyogenes [4]): 0.05 mg/kg | ED50 (Escherichia coli [5]): < 0.01 mg/kg | MIC (Pseudomonas aeruginosa [6]; [11]): 12.5 µg/mL | MIC (Pseudomonas aeruginosa [6]; [12]): 12.5 µg/mL | MIC (Pseudomonas aeruginosa [6]; [13]): 3.1 µg/mL | MIC (Enterobacter cloacae [7]; Enterobacter cloacae strain 1): > 100 µg/mL | MIC (Enterobacter cloacae [7]; Enterobacter cloacae strain 2): 3.1 µg/mL | MIC (Escherichia coli [8]; Escherichia coli strain 1): 0.1 µg/mL | MIC (Escherichia coli [8]; Escherichia coli strain 2): 0.025 µg/mL | MIC (Proteus vulgaris): 0.78 µg/mL | MIC (Streptococcus pyogenes [9]; [14]): 0.05 µg/mL | MIC (Klebsiella pseumoniae; Klebsiella pseumoniae strain 1): 0.2 µg/mL | MIC (Klebsiella pseumoniae; Klebsiella pseumoniae strain 2): 0.025 µg/mL | MIC (Citrobacter freundii; Citrobacter freundii strain 1): 6.3 µg/mL

CO/N=C(\C(=O)N[C@@H]1C(=O)N2C(C(=O)O)=C(CSc3nc(=O)c(O)nn3C)C[S+]([O-])[C@H]12)c1c[se]c(N)n1 (stereo partly drawn) [Product E, (6R, 7R)-7-[2-(2-amino-4-selenazolyl)-2-[(Z)-methoxyimino]-acetamido]-3-[[(2,5-dihydro-6-hydroxy-2-methyl-5-oxo-as-triazin-3-yl)-thio]methyl]-8-oxo-5-thia-1-azabicyclo[4.2.0]oct-2-ene-2-carboxylic acid 5-oxide disodium salt]
MIC (Proteus morganii): 0.1 µg/mL | MIC (Serratia marcescens [1]; Serratia marcescens strain 1): 0.8 µg/mL | MIC (Serratia marcescens [1]; Serratia marcescens strain 2): 0.8 µg/mL | MIC (Serratia marcescens [1]; Serratia marcescens strain 3): 0.2 µg/mL | LD50 (Toxicity, LD50; po): > 5000 mg/kg | LD50 (Toxicity, LD50; sc): > 4000 mg/kg | ED50 (Pseudomonas aeruginosa [2]): 75 mg/kg | MIC (Proteus rettgeri): 0.05 µg/mL | MIC (Proteus mirabilis; Proteus mirabilis strain 3): 0.05 µg/mL | MIC (Proteus mirabilis; Proteus mirabilis strain 4): 0.4 µg/mL | MIC (Proteus mirabilis; Proteus mirabilis strain 5): 0.1 µg/mL | MIC (Staphylococcus aureus; Staphylococcus aureus strain 1): > 12 µg/mL | MIC (Staphylococcus aureus; Staphylococcus aureus strain 2): > 12 µg/mL | MIC (Staphylococcus aureus; Staphylococcus aureus strain 3): > 12 µg/mL | MIC (Staphylococcus aureus; Staphylococcus aureus strain 4): > 12 µg/mL | ED50 (Neisseria moningitidis): < 0.1 mg/kg | ED50 (Serratia marcescens [3]): 0.03 mg/kg | ED50 (Haemophilus influenzae): 1.8 mg/kg | ED50 (Enterobacter cloacae [10]): 0.06 mg/kg | ED50 (Streptococcus pyogenes [4]): 0.13 mg/kg | ED50 (Escherichia coli [5]): 0.017 mg/kg | MIC (Pseudomonas aeruginosa [6]; [11]): 100 µg/mL | MIC (Pseudomonas aeruginosa [6]; [12]): 100 µg/mL | MIC (Pseudomonas aeruginosa [6]; [13]): 50 µg/mL | MIC (Staphylococcus epidermis): > 12 µg/mL | MIC (Streptococcus viridans): > 12 µg/mL | MIC (Enterobacter cloacae [7]; Enterobacter cloacae strain 1): 1.6 µg/mL | MIC (Enterobacter cloacae [7]; Enterobacter cloacae strain 2): 0.2 µg/mL | MIC (Enterobacter cloacae [7]; Enterobacter cloacae strain 3): 1.6 µg/mL | MIC (Escherichia coli [8]; Escherichia coli strain 1): 0.1 µg/mL | MIC (Escherichia coli [8]; Escherichia coli strain 2): 0.025 µg/mL | MIC (Escherichia coli [8]; Escherichia coli strain 3): 0.8 µg/mL | MIC (Escherichia coli [8]; Escherichia coli strain 4): 0.05 µg/mL | MIC (Escherichia coli [8]; Escherichia coli strain 5): 0.4 µg/mL | MIC (Streptococcus faecalis; Streptococcus faecalis strain 1): > 12 µg/mL | MIC (Streptococcus faecalis; Streptococcus faecalis strain 2): > 12 µg/mL | MIC (Streptococcus pyogenes [9]; [14]): 3.1 µg/mL | MIC (Streptococcus pyogenes [9]; Streptococcus pyogenes strain 2, read-out: Minimum inhibitory concentration): 0.2 µg/mL | MIC (Klebsiella pseumoniae; Klebsiella pseumoniae strain 1): 0.1 µg/mL | MIC (Klebsiella pseumoniae; Klebsiella pseumoniae strain 2): 0.05 µg/mL | MIC (Klebsiella pseumoniae; Klebsiella pseumoniae strain 3): 0.1 µg/mL | MIC (Citrobacter freundii; Citrobacter freundii strain 1): 0.1 µg/mL | MIC (Citrobacter freundii; Citrobacter freundii strain 2): 0.1 µg/mL | MIC (Streptococcus pneumoniae): 3.1 µg/mL | MIC (Enterobacter aerogenes; Enterobacter aerogenes strain 1): 0.1 µg/mL | MIC (Enterobacter aerogenes; Enterobacter aerogenes strain 2): 0.05 µg/mL | MIC (Proteus inconstans): 0.025 µg/mL
